Series [1] is described as follows: Method for predicting global Tm of collagen peptides from amino acid sequence. The conditions noted are these: observed minus predicted, peptides of Table 3. Here is the method: The global thermal stability of homotrimeric triple helical peptides with length of at least 6 tripeptide units and, in most cases, containing 10 tripeptide units was determined as follows.
For the total number of triplets n in a given peptide, the base Tm^0(n) for (Pro-Hyp-Gly) or (Pro-Pro-Gly)n was calculated from the length dependence (Equation 1), including any effect of blocking groups;
The melting temperature value was decreased for every triplet in the sequence that was not Gly-Pro-Hyp, subtracting a value of ΔTm^GXY (Table 1). The N-terminal and C-terminal tripeptide units were excluded from the calculation due to the staggering of the chains and the disorder for the peptide ends (Bella et al. (1994) supra; Li, et al. (1993) Biochemistry 32:7377-7387; Kramer, et al. (2001) J. Mol. Biol. 301:1191-1205).
The resulting value for the peptide melting temperature was adjusted using the ΔTm^int values for interactions between neighboring tripeptides (Table 2).
The method was formulated as follows.
To extrapolate the dependence of the Tm of the host peptides on peptide length, the experimental values for (Pro-Hyp-Gly)n and (Pro-Pro-Gly)n versus n, where n is the number of tripeptide units, were fit to the exponential decay function
[formula] where Tm^0(n) is defined as the base thermal stability of the repeating polytripeptide standard, Tm^max is the maximum melting temperature, and the constant n0 represents the length of the repeating peptide with Tm=0.

For series [2] the following is noted: for Tm^obs: peptide of Table 3, defined standard conditions. The procedure, abridged:
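Host-guest peptides in Gly-Xaa1-Hyp or Gly-Pro-Xaa2 contexts were melted at 1 mg/ml in PBS, pH 7.0. The heating rate averaged 0.1° C./minute, and residue propensity was derived from the Tm values.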

Series [3] in a line: Predicted Tm of guest triplets/hexapeptides by additivity of Xaa1 and Xaa2 residues (Equation 1). The conditions noted are these: host-guest collagen-like peptides. Here is the method:
A complete table of the stability for all Gly-Xaa1-Xaa2 triplets was constructed using the experimental values for all frequent sequences and the predicted values for all others (Table 1; experimental values are in bold). Predicted values were calculated on the basis of additivity of residues in the Xaa1 and Xaa2 position (Persikov, et al. (2002) supra; Equation 1). Tm^GX^1^X^2=Tm^GX^1^O+Tm^GPX^2−Tm^GPO (1)
The predicted values gave good agreement (within ±3° C.) for the Gly-Ala-Ala and for 28 other guest triplets of the 41 Gly-Xaa1-Xaa2 triplets studied in host-guest collagen-like peptides. […] Observed Tm values of Gly-Xaa1-Arg sequences (Gly-Glu-Arg, Gly-Ala-Arg, Gly-Lys-Arg, Gly-Gln-Arg, and Gly-Asp-Arg) were 2.5° C. smaller on average than predicted, indicating the need for a correction factor in a Gly-Xaa1-Arg context versus a Gly-Pro-Arg context.
Interactions between adjacent Gly-Xaa1-Xaa2 tripeptides were included in the calculations. One study reported stabilities of a selection of host-guest peptides including residues in two adjacent tripeptide units, Gly-Xaa1-Xaa2-Gly-Xaa1′-Xaa2′, covering possible direct interchain or intrachain interactions between residues that are separated by ≦3 residues in sequence (Persikov, et al. (2005) supra) (FIG. 1).

Non-standard residues stand in square brackets, D forms with d. Residues, ends and D or L forms follow the SMILES beside them. Hyp = O=C(O)[C@@H]1C[C@@H](O)CN1 Where only a bound is given, the exact number is not on record here.

With `CC(=O)NCC(=O)N1CCC[C@H]1C(=O)N[C@@H](C)C(=O)NCC(=O)N1CCC[C@H]1C(=O)N[C@@H](C)C(=O)NCC(=O)N1CCC[C@H]1C(=O)N[C@H](C(=O)NCC(=O)N1CCC[C@H]1C(=O)N[C@@H](C)C(=O)NCC(=O)N[C@@H](C)C(=O)N[C@@H](CCCNC(=N)N)C(=O)NCC(=O)N1CCC[C@H]1C(=O)N[C@@H](C)C(=O)NCC(=O)N1CCC[C@H]1C(=O)N1C[C@H](O)C[C@H]1C(=O)NCC(=O)N1CCC[C@H]1C(=O)N1C[C@H](O)C[C@H]1C(=O)NCC(=O)N[C@@H](C)C(=O)N1C[C@H](O)C[C@H]1C(=O)NCC(=O)N1CCC[C@H]1C(=O)N1C[C@H](O)C[C@H]1C(=O)NCC(=O)N[C@H](C(N)=O)C(C)C)C(C)C` [T1-892 (P26A), Ac-(GPA)2-GPV-GPA-GAR-GPA-(GPO)2-GAO-GPO-GV-NH2] (Ac-GPAGPAGPVGPAGARGPAGP[Hyp]GP[Hyp]GA[Hyp]GP[Hyp]GV-NH2), the ΔTm in series [1] is 1.5 °C. In series [2], the “Tm^obs” value was 24.1 °C.
In the same order, the values of `CC(C)[C@H](NC(=O)[C@@H]1CCCN1C(=O)CNC(=O)[C@H](C)NC(=O)[C@@H]1CCCN1C(=O)CNC(=O)[C@H](C)NC(=O)[C@@H]1CCCN1C(=O)CN)C(=O)NCC(=O)N1CCC[C@H]1C(=O)N[C@@H](C)C(=O)NCC(=O)N[C@@H](C)C(=O)N[C@@H](CCCNC(=N)N)C(=O)NCC(=O)N1CCC[C@H]1C(=O)N[C@@H](C)C(=O)NCC(=O)N1CCC[C@H]1C(=O)N1C[C@H](O)C[C@H]1C(=O)NCC(=O)N1CCC[C@H]1C(=O)N1C[C@H](O)C[C@H]1C(=O)NCC(=O)N1CCC[C@H]1C(=O)N1C[C@H](O)C[C@H]1C(=O)NCC(=O)N1CCC[C@H]1C(=O)N1C[C@H](O)C[C@H]1C(=O)NCC(=O)N[C@@H](Cc1ccc(O)cc1)C(=O)O` [T1-892 unbl, GPA-GPA-GPV-GPA-GAR-GPA-(GPO)4-GY] (H-GPAGPAGPVGPAGARGPAGP[Hyp]GP[Hyp]GP[Hyp]GP[Hyp]GY-OH) are −3.2 °C and 20.6 °C.
For `CC(=O)NCC(=O)N1CCC[C@H]1C(=O)N[C@@H](C)C(=O)NCC(=O)N1CCC[C@H]1C(=O)N[C@@H](C)C(=O)NCC(=O)N1CCC[C@H]1C(=O)N[C@H](C(=O)NCC(=O)N1CCC[C@H]1C(=O)N[C@@H](C)C(=O)NCC(=O)N[C@@H](C)C(=O)N[C@@H](CCCNC(=N)N)C(=O)NCC(=O)N1CCC[C@H]1C(=O)N[C@@H](C)C(=O)NCC(=O)N1CCC[C@H]1C(=O)N1C[C@H](O)C[C@H]1C(=O)NCC(=O)N1CCC[C@H]1C(=O)N1C[C@H](O)C[C@H]1C(=O)NCC(=O)N1CCC[C@H]1C(=O)N1C[C@H](O)C[C@H]1C(=O)NCC(=O)N1CCC[C@H]1C(=O)N1C[C@H](O)C[C@H]1C(=O)NCC(=O)N[C@H](C(N)=O)C(C)C)C(C)C` [T1-892, Ac-GPA-GPA-GPV-GPA-GAR-GPA-(GPO)4-GV-NH2] (Ac-GPAGPAGPVGPAGARGPAGP[Hyp]GP[Hyp]GP[Hyp]GP[Hyp]GV-NH2), the ΔTm in series [1] was −2.2 °C. In addition, the “Tm^obs” value in series [2] was determined as 26.0 °C.
As to `CC(=O)NCC(=O)N[C@@H](CO)C(=O)N1C[C@H](O)C[C@H]1C(=O)NCC(=O)N[C@@H](C)C(=O)N[C@@H](CCC(N)=O)C(=O)NCC(=O)N[C@@H](CC(C)C)C(=O)N[C@@H](CCC(N)=O)C(=O)NCC(=O)N1CCC[C@H]1C(=O)N[C@@H](CCCNC(=N)N)C(=O)NCC(=O)N[C@@H](CC(C)C)C(=O)N1C[C@H](O)C[C@H]1C(=O)NCC(=O)N[C@H](C(=O)N1C[C@H](O)C[C@H]1C(=O)NCC(=O)N1CCC[C@H]1C(=O)N1C[C@H](O)C[C@H]1C(=O)NCC(=O)N1CCC[C@H]1C(=O)N1C[C@H](O)C[C@H]1C(=O)NCC(=O)N1CCC[C@H]1C(=O)N1C[C@H](O)C[C@H]1C(=O)NCC(=O)N1CCC[C@H]1C(=O)N1C[C@H](O)C[C@H]1C(=O)NCC(=O)N[C@H](C(=O)O)C(C)C)[C@@H](C)O` [T2-508, Ac-GSO-GAQ-GLQ-GPR-GLO-GTO-(GPO)4-GV-OH] (Ac-GS[Hyp]GAQGLQGPRGL[Hyp]GT[Hyp]GP[Hyp]GP[Hyp]GP[Hyp]GP[Hyp]GV-OH), in series [1], the ΔTm was 3.9 °C. Besides, the “Tm^obs” value in series [2] amounted to 25.0 °C.
Consider `CC[C@H](C)[C@H](NC(=O)CNC(=O)[C@@H]1C[C@@H](O)CN1C(=O)[C@@H]1CCCN1C(=O)CNC(=O)[C@@H]1C[C@@H](O)CN1C(=O)[C@@H]1CCCN1C(=O)CNC(=O)[C@@H]1C[C@@H](O)CN1C(=O)[C@@H]1CCCN1)C(=O)N[C@H](C(=O)NCC(=O)N[C@@H](C)C(=O)N[C@@H](CCCNC(=N)N)C(=O)NCC(=O)N[C@@H](CC(C)C)C(=O)N[C@@H](C)C(=O)NCC(=O)N1CCC[C@H]1C(=O)N1C[C@H](O)C[C@H]1C(=O)NCC(=O)N1CCC[C@H]1C(=O)N1C[C@H](O)C[C@H]1C(=O)NCC(=O)N1CCC[C@H]1C(=O)N1C[C@H](O)C[C@H]1C(=O)NCC(=O)N1CCC[C@H]1C(=O)N1C[C@H](O)C[C@H]1C(=O)NCC(=O)O)[C@@H](C)O` [T3-785, PO-(GPO)2-GIT-GAR-GLA-(GPO)4-G] (H-P[Hyp]GP[Hyp]GP[Hyp]GITGARGLAGP[Hyp]GP[Hyp]GP[Hyp]GP[Hyp]G-OH), for which the ΔTm in series [1] is 0.9 °C. Also, the “Tm^obs” value in series [2] was determined as 18.0 °C.
For the compound `CC[C@H](C)[C@H](NC(=O)CNC(=O)[C@@H]1C[C@@H](O)CN1C(=O)[C@H](CCCCN)NC(=O)CNC(=O)[C@@H]1C[C@@H](O)CN1C(=O)[C@H](CCC(=O)O)NC(=O)CNC(=O)[C@H](C)NC(=O)[C@H](CC(C)C)NC(=O)CNC(C)=O)C(=O)N1C[C@H](O)C[C@H]1C(=O)NCC(=O)N[C@@H](CC(C)C)C(=O)N1C[C@H](O)C[C@H]1C(=O)NCC(=O)N[C@@H](CCCNC(=N)N)C(=O)N[C@@H](C)C(=O)NCC(=O)N1CCC[C@H]1C(=O)N1C[C@H](O)C[C@H]1C(=O)NCC(=O)N1CCC[C@H]1C(=O)N1C[C@H](O)C[C@H]1C(=O)NCC(=O)N1CCC[C@H]1C(=O)N1C[C@H](O)C[C@H]1C(=O)NCC(=O)N1CCC[C@H]1C(=O)N1C[C@H](O)C[C@H]1C(=O)NCC(=O)N[C@H](C(N)=O)C(C)C` [T7-2031, Ac-GLA-GEO-GKO-GIO-GLO-GRA-(GPO)4-GV-NH2] (Ac-GLAGE[Hyp]GK[Hyp]GI[Hyp]GL[Hyp]GRAGP[Hyp]GP[Hyp]GP[Hyp]GP[Hyp]GV-NH2), in series [1], the ΔTm was 2.1 °C. In addition, the “Tm^obs” value in series [2] was found to be 25.4 °C.
Taken in the same sequence, the figures for “GPS-GPR-GLO-GPO-GAO-GPQ-GFQ-GPO-(GEO)2-GAS-GPM [α1CB2]” were 3.4 °C and 12 °C.
As for Gly-Ala-Ala, the “deviation of observed Tm from predicted Tm of guest triplet” value in series [3] is no more than 3 °C. Also, the “experimentally observed Tm of Gly-Xaa1-Xaa2 tripeptide unit in a triple helix” value in series [2] (host-guest peptide, (Gly-Pro-Hyp)8 host, c=1 mg/ml in phosphate-buffered saline, pH 7.0, heating rate 0.1° C./minute) turned out to be 32.9 °C.

For orientation: ΔTm means the shift of the melting midpoint relative to a reference.

The values above are taken from US8280710B2, “Method for determining thermal stability of collagen or collagen-like peptide” (University of Medicine and Dentistry of New Jersey, priority 2005, dated 2012).
